According to patent US7339039B2, “Nucleic acids encoding receptor recognition factors, and methods of use thereof” (The Rockfeller University, priority 1992, dated 2008):
Blank lines part the entries; values can stand above or below the molecule they belong to. Square brackets hold non-standard residues; d marks the D form. Ends that are not written are not given here. pY = N[C@@H](Cc1ccc(OP(=O)(O)O)cc1)C(=O)O

How the values were obtained:
Stat91-DNA complex = biological target: T1, Stat91-DNA complex (Homo sapiens, UniProt P42224); assay: Formation of Stat91-DNA complex in the presence of phosphoamino acids; assay type: biochemical; conditions: 10 mM
T1 sequence (P42224 1-750): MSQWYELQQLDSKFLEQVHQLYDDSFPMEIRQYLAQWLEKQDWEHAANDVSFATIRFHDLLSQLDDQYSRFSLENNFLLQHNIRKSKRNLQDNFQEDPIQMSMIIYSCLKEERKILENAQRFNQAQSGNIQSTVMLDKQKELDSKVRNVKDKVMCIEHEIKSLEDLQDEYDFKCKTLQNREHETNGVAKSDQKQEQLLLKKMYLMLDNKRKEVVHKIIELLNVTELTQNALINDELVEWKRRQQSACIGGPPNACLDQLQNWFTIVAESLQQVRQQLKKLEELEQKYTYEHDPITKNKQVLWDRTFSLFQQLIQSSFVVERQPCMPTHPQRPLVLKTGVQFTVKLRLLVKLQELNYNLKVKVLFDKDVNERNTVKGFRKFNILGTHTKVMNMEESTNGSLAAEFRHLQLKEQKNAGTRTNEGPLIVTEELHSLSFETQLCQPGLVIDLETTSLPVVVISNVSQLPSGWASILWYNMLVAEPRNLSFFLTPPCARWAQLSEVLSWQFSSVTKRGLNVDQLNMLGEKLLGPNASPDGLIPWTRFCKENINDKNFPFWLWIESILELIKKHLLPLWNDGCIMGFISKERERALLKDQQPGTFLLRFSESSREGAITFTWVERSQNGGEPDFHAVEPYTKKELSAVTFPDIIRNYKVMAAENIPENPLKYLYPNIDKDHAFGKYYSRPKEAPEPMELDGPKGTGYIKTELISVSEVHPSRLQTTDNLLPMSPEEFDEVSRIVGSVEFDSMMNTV
Description: (§1) Gel Mobility Shift Assays. Gel mobility shift assays were carried out as described (34). An oligonucleotide corresponding to the GAS element from the human FcγRI receptor gene (Pearse et al. 1993) was synthesized and used for gel mobility shift assays. The oligonucleotide has the following sequence: 5′[…]3′ (SEQ. ID NO:17).
The Stat91 sequence contains an SH2 domain (amino acids 569 to 700, see discussion below), and we knew that Tyr-701 was the single phosphorylated tyrosine residue required for DNA binding activity (supra, 45). […] We therefore sought evidence that the dimerization of Stat91 involved specific SH2-phosphotyrosine interaction using the dissociation and reassociation assay.

[1] = tested on: ISGF-3 formation / IFN-α induced transcription; conditions: cited from earlier work
[2] = tested on: Stat84 and Stat91L homodimers; assay: Dissociation-reassociation analysis (gel mobility shift with GAS probe); assay type: biochemical, human; conditions: for dissociation of the dimers and block of formation of DNA protein complexes: peptide 160 μM
Description: as §1
Dissociation-reassociation Analysis. Extracts were incubated with various concentrations of peptides or fusion proteins, and ^32P-labeled GAS oligonucleotide probe in gel shift buffer was then added to promote the formation of protein-DNA complex followed by mobility shift analysis.
Dimerization of Stat91 Involves Phosphoryrosyl Peptide and SH2 Interactions. Based on the results described above, we devised a dissociation-reassociation assay in the absence of guanidium hydrochloride to explore the possible nature of interactions involved in dimer formation (FIG. 20). When the short and the long forms of a homodimer are mixed with a dissociating agent (e.g., a peptide containing the putative dimerization domain), the subunits of the dimer should dissociate (in a concentration dependent fashion) due to the interaction of the agent with the dimerization domain(s) of the protein. When a specific DNA probe is subsequently added to the mixture to drive the formation of a stable protein-DNA complex, the detection of any reassociated or remaining dimers can be assayed. In the presence of low concentration of the dissociating agent, addition of DNA to form the stable protein-DNA complex should lead to the detection of homodimers as well as heterodimers. At high concentration of the dissociating agent, subunits of the dimer may not be able to re-form and no DNA-protein complexes would be detected (FIG. 20).

prevention of formation of Stat91-DNA complex (Stat91-DNA complex): not
Molecule: N[C@@H](COP(=O)(O)O)C(=O)O [phosphoserine]

prevention of formation of Stat91-DNA complex (Stat91-DNA complex): not
Molecule: C[C@@H](OP(=O)(O)O)[C@H](N)C(=O)O [phosphothreonine]

prevention of formation of Stat91-DNA complex (Stat91-DNA complex): could prevent the formation
Molecule: N[C@@H](Cc1ccc(OP(=O)(O)O)cc1)C(=O)O [phosphotyrosine]

Molecule: CN[C@@H]1C[C@H]2O[C@@](C)([C@@H]1OC)n1c3ccccc3c3c4c(c5c6ccccc6n2c5c31)C(=O)NC4 [staurosporine]
IFN-α induction of ISGF-3 formation [1]: blocks | IFN-α induction of transcription [1]: blocks

Molecule: EPQY*EEIPIYL (EPQ[pY]EEIPIYL) [SrcY-p, reference compound]
effect on Stat91 dimer formation ([2]; FIG. 21 lanes 11-13 (4, 40, 160 μM)): no effect

Molecule: GY*IKTE (G[pY]IKTE) [91Y-p]
exchange between the subunits of Stat84 dimers and Stat91L dimers to form heterodimers ([2]; peptide 4 μM, extracts of IFN-γ-treated C84 and C91L cells): clearly promoted the exchange | dissociation of the dimers and block of formation of DNA protein complexes [2]: dissociated the dimers and blocked the formation of DNA protein complexes

Molecule: KVNLQERRKY*LKHR (KVNLQERRK[pY]LKHR) [113Y-p]
exchange of subunits between Stat84 and Stat91L ([2]; at concentrations similar to 91Y-p): promoted the exchange of subunits | prevention of the gel shift bands ([2]; peptide 40 μM): prevented the gel shift bands almost completely

Molecule: LDGPKGTGYIKTELI [91Y]
dissociation of the dimers and block of formation of DNA protein complexes [2]: not | effect on the two gel shift bands characteristic of Stat84 or Stat91L homodimers ([2]; various concentrations of peptide (4, 40, 160 μM)): no effect
